# Entries after “also recorded” stand apart in the source; their conditions may differ.
# Assays:
# SOD1^G93A rats [1] = test: Neuromuscular junction innervation analysis in whole mounted EDL muscle; assay type: in vivo, rat; settings: 100 mg/kg/day post-paralysis; vs vehicle
# Method: Extensor digitorium longus (EDL) muscles from the NonTg and SOD1^G93A hind limbs were dissected. Then, tissues were blocked for 2 h at room temperature (BSA 5% v/v, Triton X-100 0.8% v/v in PBS pH=7.4), incubated with primary antibodies or fluorescent probes at 4° C. overnight: axon and post-synaptic plates were carried out using 1:1000 rabbit anti-heavy chain neurofilament-Alexa Fluor 555 (Millipore, #MAB5256A5) and fluorescently labeled a-bungarotoxin-FITC [αBTX, (Thermo Fisher Scientific, B13422)], axon presynaptic terminals were labeled with 1:300 rabbit anti-synaptophysin-Alexa Fluor 555 (Abcam, #ab206870). After washing 4 times with PBS, whole-mount muscles were mounted using DPX. Structural changes of the neuromuscular junction were scored using maximum-intensity projections of images acquired from whole-mounted muscles. Neuromuscular junction innervation analysis was performed taking into consideration those postsynaptic motor endplates occupied by a presynaptic axon terminal, where full innervation was defined as at least 80% of overlapping between pre- and postsynaptic. An average of 100 neuromuscular junctions per animal was analyzed using the ImageJ software.
# SOD1^G93A rats [2] = test: Immunohistochemical analysis of gliosis in the ventral horn of lumbar spinal cord; assay type: in vivo, rat; settings: 15 days post-paralysis
# Method: After 15 days of treatment using 100 mg/kg/day of BANA, starting after paralysis onset, animals were deeply anesthetized and transcardial perfusion was performed with 0.9% saline and 4% paraformaldehyde in […] (pH 7.2-7.4). Fixed spinal cords were removed, post-fixed by PFA 4% immersion overnight, and then transverse sectioned (30 m) in a Leica cryostat. Serial sections were collected in 100 mM PBS for immunohistochemistry.
# At least 4 rats were analyzed for each immunohistochemistry experiment. Three different conditions were studied as follows: 1) non-transgenic (NonTg) rats of 160-180 days; 2) transgenic SOD1^G93A rats of 195-210 days treated with vehicle (paralysis, 15 d-vehicle) and 3) transgenic SOD1^G93A rats of 195-210 days treated with 50 or 100 mg/kg/day of BANA during 15 days. After treatment animals were deeply anesthetized and transcardial perfusion was performed with paraformaldehyde 4% (v/v) in PBS pH=7.4. Fixed spinal cords were removed, post-fixed by immersion overnight in paraformaldehyde 4% (v/v) in PBS pH=7.4, and then transverse sectioned (30 m) in a Leica cryostat. Serial sections were collected in PBS pH=7.4 for immunohistochemistry.
# Free-floating sections were blocked and permeabilized for 1 hour at room temperature with 0.5% Triton X-100 and 5% BSA in PBS (pH=7.4), passed through washing buffered solutions, and incubated overnight at 4° C. in a solution of 0.5% Triton X-100 and BSA 1% in PBS (pH=7.4) containing the primary antibodies: mouse anti-GFAP (G3893 1:400), rabbit anti-GFAP (Sigma #G9269 1:400), mouse anti-S1000 (Sigma #S2532 1:400), rabbit anti-Iba1 (Wako #019-19741, 1:500), rabbit anti-ChAT (Choline acetyltransferase) (Millipore, #AB143, 1:300), mouse anti-CD68 (Abcam, #ab31630, 1:300), rabbit anti-CD34 (Abcam, #ab81289, 1:200), rabbit anti-Ki67 (Abcam, #ab66155, 1:300), rabbit anti-NF-κB-p65 (Abcam, #ab16502, 1:200), rabbit anti-Ki67 (Abcam, #ab16667, 1:200), rabbit anti-ubiquitin (Millipore, #05-1307, 1:200), mouse anti-nitrotyrosine (Millipore, #05233, 1:200), anti-VGlut-1 (SySy, #135-303, 1:300), anti-synaptophysin (Abcam, #206870, 1:300), anti-0111-Tubulin (Millipore, #MAB1637, 1:200).
# The inventors assessed the effect of BANA on markers of neuroinflammation in the degenerating spinal cords. SOD1^G93A rats were treated daily with BANA (100 mg/kg) or vehicle at the onset of motor symptoms. After 15 days of treatment, rats were euthanized and spinal cords were dissected for immunohistological analysis.
# Experiments to assess the effect of BANA on markers of neuroinflammation in the degenerating spinal cords were conducted in rats. SOD1^G93A rats were treated with BANA (100 mg/kg/day) or vehicle at the onset of symptoms. After 15 days of treatment rats were euthanized and spinal cord was removed for histological analysis.
# Microgliosis and astrogliosis were assessed by counting the expression intensity for the different markers in gray matter from the lumbar cord of non-transgenic, SOD1^G93A onset or symptomatic rats that were treated with either vehicle or BANA. The number of aberrant glial cells co-expressing the astrocytic markers GFAP and S1000 was assessed by counting the respective positive cells for both markers in gray matter from the lumbar cord of non-transgenic, SOD1^G93A onset or symptomatic rats that were treated with either vehicle or BANA. The analysis was performed in at least 10 histological sections per animal (three different rats for each condition) using the ImageJ software. Statistical studies were performed using statistical tools of GraphPad Prism 7 software. Descriptive statistics were used for each group, and Kruskal-Wallis analysis, followed by Dunn's comparison test, was used among groups. All results are presented as mean±SEM, with p<0.05 considered significant.
# NF-κB = test: TNFα-induced NF-κB activation in HT-29 NF-κB reporter cell line (flow cytometry); assay type: cell-based; settings: BANA 10, 20, 30 μM, BA 30 μM, DMF 30 μM before TNFα
# Method: The effects of BANA on LPS- or TNFα-induced NF-κB activation were also assayed in cell cultures of BV2 microglial cell line and primary adult microglia isolated from symptomatic SOD1^G93A rats, and HT-29 NF-κB reporter cell line, respectively.
# inflammasome = test: LPS/ATP-induced inflammasome activation in BV2 cells (western blot of IL-1β); assay type: cell-based, murine; settings: treatment in second signal (ATP), compared to vehicle or sodium benzoate
# Method: FIG. 3B: For inflammasome activation, BV2 cells were treated with LPS and ATP. BANA or B.A treatment was performed in second signal (ATP). Presence of pro-IL1β in cell lysates (CL) and cleaved IL-1β in supernatants (SN) was determined by western blot analysis. […] All data are expressed as mean±SEM.
structure (smiles),measurement,setting,value
"O=C(O)c1ccc(/C=C/[N+](=O)[O-])cc1 [BANA, (E)-4-(2-nitrovinyl) benzoic acid]",motor endplate denervation in the EDL muscle,SOD1^G93A rats [1],significantly reduced
same,astrogliosis (GFAP),SOD1^G93A rats [2]; 50 mg/kg/day,failed to reduce
same,microgliosis (Iba1),SOD1^G93A rats [2]; 50 mg/kg/day,significantly reduced
same,astrocytosis (GFAP staining),"SOD1^G93A rats [2]; 100 mg/kg/day, vs vehicle",significantly reduced
same,cell proliferation in the ventral horn (Ki67-positive nuclei),"SOD1^G93A rats [2]; 100 mg/kg/day, vs vehicle",decreased; also recorded: significantly reduced
same,emergence of aberrant glial cells (GFAP/S100β) in the surroundings of motor neurons,"SOD1^G93A rats [2]; 100 mg/kg/day, vs vehicle",significantly reduced
same,"microgliosis in the ventral horn (Iba1-, CD68-, CD34-positive cells)","SOD1^G93A rats [2]; 100 mg/kg/day, vs vehicle",significantly reduced
same,TNFα-induced NF-κB activation,NF-κB,potently prevented
same,LPS/ATP-induced inflammasome activation (release of IL-1β adjusted to pro-IL-1β),inflammasome,inhibited

# Reference: patent US20260060947A1 (INSTITUT PASTEUR DE MONTEVIDEO, priority 2019, published 2026)
